This is an account of results in ChEMBL document CHEMBL5608213, “Synthesis of furanotriterpenoids from betulin and evaluation of Tyrosyl-DNA phosphodiesterase 1 (Tdp1) inhibitory properties of new semi-synthetic triterpenoids” (Eur J Med Chem, 2024).

One data set has as its system A549. The data set is described as follows: Cytotoxicity against human A549 cells incubated for 72 hrs by MTT assay. Type of data set: functional. Background: Tetrazolium dyes change colour on reduction, which living cells bring about.
The next data set relates to HCT-116. The data set is described as follows: Cytotoxicity against human HCT-116 cells incubated for 72 hrs by MTT assay. In kind it is functional.
Data set [1] can be described thus: Cytotoxicity against human HeLa-V cells incubated for 72 hrs by MTT assay. Type of data set: functional.
For the next data set, the system named is HepG2. The data set is described as follows: Cytotoxicity against human HepG2 cells incubated for 72 hrs by MTT assay. Type of data set: functional.
For the next data set, the system named is MCF7. The experiment in a line: Cytotoxicity against human MCF7 cells incubated for 72 hrs by MTT assay. Type of data set: functional.
In a further data set the test system is MDA-MB-231. The data set is described as follows: Cytotoxicity against human MDA-MB-231 cells incubated for 72 hrs by MTT assay. In kind it is functional.
The test system of another data set is MDA-MB-453. The experiment in a line: Cytotoxicity against human MDA-MB-453 cells incubated for 72 hrs by MTT assay. Type of data set: functional.
A short description of data set [2]: Cytotoxicity against human Mel-MS cells incubated for 72 hrs by MTT assay. In kind it is functional.
A further data set concerns RD. The experiment in a line: Cytotoxicity against human RD cells incubated for 72 hrs by MTT assay. Type of data set: functional.
Another data set has as its system PC-3. The data set is described as follows: Cytotoxicity against human PC-3 cells incubated for 72 hrs by MTT assay. Type of data set: functional.
The nature of data set [3]: Cytotoxicity against HEK293 cells incubated for 72 hrs by MTT assay. In kind it is toxicity, cell-based. The conditions noted are these: human.
A short description of data set [4]: Cytotoxicity against human MCF-10A cells incubated for 72 hrs by MTT assay. Type of data set: toxicity, cell-based.
In data set [5] the target is Tyrosyl-DNA phosphodiesterase 1 (Homo sapiens, UniProt Q9NUW8). The experiment in a line: Inhibition of Tdp1 (unknown origin) using 5'-[FAM]AACGTCAGGGTCTTCC[BHQ1]-3' as substrate measured every 55 sec by fluorescence based analysis.
A short description of data set [6]: Cytotoxicity against human HeLa-V cells assessed as reduction in cell viability incubated for 72 hrs in presence of 0.5 uM topotecan by MTT assay. In kind it is functional.
Data set [7] is described as follows: Cytotoxicity against human HeLa-V cells assessed as cell viability at <=12.5 uM incubated for 72 hrs in presence of 0.5 uM topotecan by MTT assay relative to control. In kind it is functional. The conditions noted are these: up to 12.5 µM.
A short description of data set [8]: Sensitization of topotecan-induced cytotoxicity against human HeLa-V cells assessed as reduction in cell viability by measuring fold change in topotecan CC50 at 10 uM incubated for 72 hrs by MTT assay relative to topotecan alone. In kind it is functional.

Some results are limits rather than exact numbers.

Sequence of Tyrosyl-DNA phosphodiesterase 1 (Q9NUW8 whole entry): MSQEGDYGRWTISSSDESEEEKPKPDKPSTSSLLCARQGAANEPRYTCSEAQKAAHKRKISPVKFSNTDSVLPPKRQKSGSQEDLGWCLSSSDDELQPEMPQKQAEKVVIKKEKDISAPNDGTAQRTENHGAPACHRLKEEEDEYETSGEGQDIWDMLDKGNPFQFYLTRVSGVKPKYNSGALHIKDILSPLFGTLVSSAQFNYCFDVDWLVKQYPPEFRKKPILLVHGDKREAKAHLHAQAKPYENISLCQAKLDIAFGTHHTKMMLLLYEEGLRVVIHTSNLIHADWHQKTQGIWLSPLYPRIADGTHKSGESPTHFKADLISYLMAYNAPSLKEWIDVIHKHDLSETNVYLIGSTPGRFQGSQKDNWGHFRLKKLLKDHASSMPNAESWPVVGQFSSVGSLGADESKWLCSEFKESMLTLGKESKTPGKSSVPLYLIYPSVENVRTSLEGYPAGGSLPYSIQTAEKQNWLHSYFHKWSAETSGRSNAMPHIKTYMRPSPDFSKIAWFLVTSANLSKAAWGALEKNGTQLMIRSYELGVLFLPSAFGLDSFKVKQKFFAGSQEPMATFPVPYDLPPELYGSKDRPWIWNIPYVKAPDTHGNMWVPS

Regarding `CC(C)[C@@H]1CC[C@]2(CO)CC[C@]3(C)[C@H](CC[C@@H]4[C@@]5(C)O[C@H](CC#N)C(C)(C)[C@@H]5CC[C@]43C)[C@@H]12`, the CC50 (usually the concentration at which the toxic effect on the cells reaches its halfway point) in the data set on A549 was 89.9 µM; with HCT-116 it was greater than 100 µM; in [1] it was 31.6 µM; with HepG2, greater than 200 µM; in the data set on MCF7, 39.2 µM; in the data set with MDA-MB-231, greater than 100 µM. In addition, the CC50 is greater than 100 µM in the data set on MDA-MB-453; greater than 100 µM in data set [2]; 79 µM with RD; greater than 100 µM in the data set with PC-3; 14.8 µM in [6]. Moreover, the CC50 at 72 h in data set [3] and in [4] was greater than 100 µM in each case. For the same molecule, it took 1 µM to reach half-maximal inhibition in data set [5] (IC50). The Activity in [7] is roughly 80%.

With `C=C1[C@H](C(C)(C)[C@@H](O)CC#N)CC[C@]2(C)[C@@H]1CC[C@@H]1[C@H]3[C@H](C(C)C)CC[C@]3(COC(=O)c3ccccc3)CC[C@]12C`, the cytotoxic concentration (CC50) (with A549; in the data set on HCT-116; in data set [1]; in the data set with HepG2; with MCF7; in the data set on MDA-MB-231) was greater than 100 µM each time. Moreover, the CC50 in the data set with MDA-MB-453 was greater than 100 µM; in [2], greater than 100 µM; in the data set on RD, greater than 100 µM; in the data set with PC-3 it was greater than 100 µM; in [6] it was no more than 35.1 µM. Further, the cytotoxic concentration (CC50) at 72 h in data set [3] and in data set [4] was greater than 100 µM throughout. Moreover, in [5], the IC50 (as a rule, the concentration at which inhibition is half-maximal) is 1.97 µM. In addition, in [7], the Activity is reported as roughly 80%. Further, in data set [8], the “fold change (FC)” value is on record as less than 1.5.

Turning to `CC(C)[C@@H]1CC[C@]2(COC(=O)c3ccccc3)CC[C@]3(C)[C@H](CC[C@@H]4[C@@]5(C)/C(=N/O)[C@H]6O[C@H]6C(C)(C)[C@@H]5CC[C@]43C)[C@@H]12`, the CC50 in the data set with A549 is greater than 100 µM; in the data set with HCT-116, greater than 100 µM; in data set [1], 28 µM; in the data set with HepG2, greater than 100 µM; in the data set with MCF7, greater than 100 µM; with MDA-MB-231, greater than 100 µM. Further, the CC50 in the data set with MDA-MB-453 is greater than 100 µM; in data set [2], greater than 100 µM; in the data set on RD it was greater than 100 µM; in the data set on PC-3, 62.2 µM; in [6], 13.1 µM. The CC50 at 72 h in data set [3] and in data set [4] was greater than 100 µM each time. Also, 2 µM corresponded to half-maximal inhibition in [5] (IC50).

`C=C1[C@H]2CC[C@@H]3[C@H]4[C@H](C(C)C)CC[C@]4(COC(=O)c4ccccc4)CC[C@@]3(C)[C@]2(C)CC[C@@H]1C(C)(C)[C@@H]1O[C@H]1C#N`: the CC50 (in the data set on A549; in the data set on HCT-116; in data set [1]; in the data set with HepG2; in the data set with MCF7; with MDA-MB-231) was greater than 100 µM throughout. Moreover, the CC50 (with MDA-MB-453; in data set [2]; in the data set with RD; in the data set on PC-3) was greater than 100 µM throughout. Besides, the CC50 at 72 h in [3] and in data set [4] was greater than 100 µM in each case. The half-inhibitory concentration (IC50) in data set [5] was found to be 8 µM.
